# In patent publication US20190062340A1, “CORTISTATIN ANALOGS” (PRESIDENT AND FELLOWS OF HARVARD COLLEGE, priority 2016, published 2019):
# What was measured:
# [1] = tested on: off-target enzymes and receptors; test: Selectivity against off-target enzymes and receptors
# [2] = Toxicity (weight loss) over 7 day dosing; assay type: in vivo; details: low toxicity, no significant weight loss
# [3] = target: hERG (Homo sapiens, UniProt Q12809); test: hERG activity; details: low hERG activity is defined as IC50>1 μM
# Chain of hERG (Q12809 whole entry): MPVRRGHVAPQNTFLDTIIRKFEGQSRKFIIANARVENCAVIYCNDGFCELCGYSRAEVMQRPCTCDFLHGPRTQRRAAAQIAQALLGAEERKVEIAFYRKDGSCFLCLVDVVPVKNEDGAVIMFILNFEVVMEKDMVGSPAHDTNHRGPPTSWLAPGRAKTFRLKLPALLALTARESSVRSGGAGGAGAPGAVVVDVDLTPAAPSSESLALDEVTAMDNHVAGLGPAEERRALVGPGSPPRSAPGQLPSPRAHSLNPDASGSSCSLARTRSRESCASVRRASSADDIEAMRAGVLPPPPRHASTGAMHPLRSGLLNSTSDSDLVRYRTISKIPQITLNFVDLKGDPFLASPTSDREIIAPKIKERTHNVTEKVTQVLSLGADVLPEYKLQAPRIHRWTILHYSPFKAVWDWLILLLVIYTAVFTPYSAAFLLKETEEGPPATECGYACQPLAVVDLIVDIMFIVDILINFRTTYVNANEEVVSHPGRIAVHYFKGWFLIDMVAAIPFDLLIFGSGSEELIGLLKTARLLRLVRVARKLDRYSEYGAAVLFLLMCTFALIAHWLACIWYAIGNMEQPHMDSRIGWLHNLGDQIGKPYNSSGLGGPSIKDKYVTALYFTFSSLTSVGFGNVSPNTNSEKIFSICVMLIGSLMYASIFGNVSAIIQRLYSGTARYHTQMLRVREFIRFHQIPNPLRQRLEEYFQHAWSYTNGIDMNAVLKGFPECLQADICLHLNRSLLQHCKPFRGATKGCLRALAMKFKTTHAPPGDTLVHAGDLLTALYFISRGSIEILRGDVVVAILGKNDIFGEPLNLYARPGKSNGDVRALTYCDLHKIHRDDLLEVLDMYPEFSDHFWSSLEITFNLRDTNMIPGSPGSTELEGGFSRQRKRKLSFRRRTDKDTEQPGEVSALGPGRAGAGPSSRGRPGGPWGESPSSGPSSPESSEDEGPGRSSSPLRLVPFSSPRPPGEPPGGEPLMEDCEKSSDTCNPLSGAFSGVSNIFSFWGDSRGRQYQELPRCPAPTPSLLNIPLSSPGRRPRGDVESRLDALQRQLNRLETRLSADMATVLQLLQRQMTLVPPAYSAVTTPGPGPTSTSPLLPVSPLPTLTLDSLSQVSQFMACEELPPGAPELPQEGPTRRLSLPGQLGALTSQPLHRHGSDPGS
# [4] = tested on: human umbilical vein endothelial cells (HUVECs); details: HUVEC proliferation; initial study of Aoki et al.; read-out: IC50, anti-proliferative activity against HUVECs; cited from earlier work
# [5] = Tolerability of once-daily dosing in mice (weight loss); details: once-daily at a dose that fully inhibits CDK8 kinase activity in vivo, experiment terminated
selectivity against off-target enzymes and receptors [1],Molecule,weight loss [2] [%],IC50 [3] [nM],IC50 [4] [nM],weight loss in the animal [5]
high selectivity,"C[C@]12CC=C3C=C4CC[C@@H](O)C[C@]45CC[C@]3(O5)[C@@H]1CC[C@@H]2c1ccc2ccncc2c1 [Compound A, (3S,3 aR,9R,10aR,12aS,12bR)-3-(isoquinolin-7-yl)-3a-methyl-1,2,3,3 a,4,7,8,9,10,11,12,12b-dodecahydro-10a,12a-epoxybenzo[4,5]cyclohepta[1,2-e]inden-9-ol]",< 15,> 1000,–,–
–,Cortistatin A,–,–,1.8,unacceptable weight loss
